The results in this text go back to patent US12723023B2, “Ionizable cationic lipids for RNA delivery” (Arcturus Therapeutics, Inc., priority 2021, dated 2026).

One data set relates to hEPO. As to the kind of experiment: hEPO mRNA expression evaluation (hEPO-LNPs, serum hEPO by ELISA). In kind it is in vivo, Balb/c mice. Conditions: serum after 6 hr; for EPO exprssn (ng/mL) 0.03 mpk: 0.03 mpk hEPO-LNP intravenously; for EPO exprssn (ng/mL) 0.1 mpk: 0.1 mpk hEPO-LNP intravenously. The procedure:
Lipid formulations comprising a hEPO mRNA below were evaluated for their ability to express hEPO in vivo according to the protocol of this example. All animal experiments were conducted using institutionally-approved protocols (IACUC). In this protocol, female Balb/c mice at least 6-8 weeks of age were purchased from Charles River Laboratory. The mice were intravenously injected with hEPO-LNPs via the tail vein with one of two dose levels of hEPO (0.1 and 0.03 mg/kg). After 6 hr, blood was collected with serum separation tubes, and the serum was isolated by centrifugation. Serum hEPO levels were then measured using an ELISA assay (Human Erythropoietin Quantikine IVD ELISA Kit, R&D Systems, Minneapolis, MD).

A further data set can be described thus: Mouse plasma stability. In kind it is in vitro ADME, CD-1 mouse. Conditions: 1 μM lipid. The procedure:
Lipid stock solution was prepared by dissolution of the lipid in isopropanol at the concentration of 5 mg/mL. A requisite volume of the lipid-isopropanol solution was then diluted to 100 μM concentration at a total volume of 1.0 mL with in 50:50 (v/v) ethanol/water. Ten microliters of this 100 μM solution was spiked into 1.0 mL of mouse plasma (BioIVT, Cat. No.: MSE00PLNHUNN, CD-1 mouse, anticoagulant: sodium heparin, not filtered) that was pre-warmed to 37° C. and was stirred at 50 rpm with a magnetic stir bar. The starting concentration of lipids in plasma was thus 1 μM. At time points 0, 15, 30, 45, 60 and 120 min, 0.1 mL of the plasma was withdrawn from the reaction mixture and the protein was precipitated by adding 0.9 mL of ice-cold 4:1 (v/v) acetonitrile/methanol with 1 μg/mL of a selected internal standard lipid added. After filtration through a 0.45 micron 96-well filtering plate, the filtrates were analyzed by LC-MS (Thermo Fisher's Vanquish UHPLC-LTQ XL linear ion trap Mass Spectrometer); Waters XBridge BEH Shield RP18 2.5 micron (2.1×100 mm) column with its matching guard column. Mobile phase A was 0.1% formic acid in water, and mobile phase B was 0.1% formic acid in 1:1 (v/v) acetonitrile/methanol. Flow rate was 0.5 ml/min. Elution gradient was: Time 0-1 min: 10% B; 1-6 min: 10%-95% B; 6-8.5 min: 95% B; 8.5-9 min: 95%-10% B; 9-10 min: 10% B. Mass spectrometry was in positive scanning mode from 600-1100 m/z. The peak of the molecular ion of the lipids was integrated in the extracted ion chromatography (XIC) using Xcalibur software (Thermo Fisher). The relative peak area compared to T=0, after normalization by the peak area of the internal standard, was used as the percentage of the lipid remaining at each time point. T1/2 values were calculated using the first-order decay model.

Data set [1] in a line: In vivo biodegradability assay (lipid concentration in mouse liver by LC-MS). Also on record: species or system mice. Particulars: BLOQ: below level of quantification; for In vivo degradability (ng tissue) at 48 h 0.1 mpk: Table 1, 0.1 mpk; for In vivo degradability (ng/tissue) at 48 h 0.1 mpk: Table 2, 0.1 mpk.
Protocol: In vivo biodegradability assay was performed to assess the biodegradability of lipids in the LNP. Briefly, mice were injected with either 0.1 or 0.03 mg/Kg dose and after 24 or 48 hours mice livers were collected. To measure the concentration of lipids in the mouse liver, liver samples were homogenized in appropriate buffer in 1-10 dilution and mixed with the same amount of stabilized plasma. The samples were then mixed with organic solvents spiked with internal standard to precipitate proteins. After centrifugation, supernatant was diluted further with organic solvent before sample analysis by LC-MS. In LC-MS analysis, positive electrospray ionization was used, and multiple reaction monitoring (MRM) parameters were set up to specifically target the lipid analyte and internal standard. Calibration standards were prepared in stabilized plasma and mixed with same amount of homogenization buffer before protein precipitation. Quality control samples with known amounts of lipid was prepared in blank liver homogenate to monitor the precision and accuracy of the assay.

In the case of `CCC1CCC(C(=O)OCC(COC(=O)C2CCC(CC)CC2)OC(=O)CCCN(CCCC(=O)OC(COC(=O)C2CCC(CC)CC2)COC(=O)C2CCC(CC)CC2)C(=O)SCCCN(C)C)CC1` (centres unmarked) [LIPID 16, ((4,4′-((((3-(Dimethylamino)propyl)thio)carbonyl)azanediyl)bis(butanoyl))bis(oxy))bis(propane-2,1,3-triyl) tetrakis(4-ethylcyclohexane-1-carboxylate)], the “EPO exprssn (ng/mL) 0.03 mpk” value in the data set with hEPO (Table 1) is given as 2088 ng/mL. Further, the results for the “EPO exprssn (ng/mL) 0.1 mpk” value with hEPO (Table 1) and in the data set on hEPO (Table 2) were 6358 ng/mL and 2088 ng/mL, respectively. For the same molecule, the “Plasma half life % remaining after 2 h” value in the data set “Mouse plasma stability” (Table 1, 37° C.) is 40%; in “Mouse plasma stability” (Table 2, 37° C.) it was 40%. Also, the “In vivo degradability (ng/tissue) at 48 h 0.03 mpk” value in data set [1] (Table 1, 0.03 mpk) is <340 ng/tissue; in data set [1] (Table 2, 0.03 mpk), <340 ng/tissue. In data set [1], the “In vivo degradability (ng tissue) at 48 h 0.1 mpk” value is reported as <340 ng tissue. Also, in data set [1], the “In vivo degradability (ng/tissue) at 48 h 0.1 mpk” value is on record as <340 ng/tissue.

With `CC(CC1CCCCC1)C(=O)OCC(COC(=O)C(C)CC1CCCCC1)OC(=O)CCCN(CCCC(=O)OC(COC(=O)C(C)CC1CCCCC1)COC(=O)C(C)CC1CCCCC1)C(=O)SCCCN(C)C` (centres unmarked) [LIPID 17, ((4,4′-((((3-(Dimethylamino)propyl)thio)carbonyl)-azanediyl)bis(butanoyl))bis(oxy))bis(propane-2,1,3-triyl) tetrakis(3-cyclohexyl-2-methylpropanoate)], in the data set on hEPO (Table 1), the “EPO exprssn (ng/mL) 0.03 mpk” value was determined as 1082 ng/mL and the “EPO exprssn (ng/mL) 0.1 mpk” value is 1555 ng/mL. The “EPO exprssn (ng/mL) 0.1 mpk” value with hEPO (Table 2) is listed as 1082 ng/mL. For the same molecule, the “Plasma half life % remaining after 2 h” value in “Mouse plasma stability” (Table 2, 37° C.) was determined as 100%. Further, in data set [1] (Table 1, 0.03 mpk), the “In vivo degradability (ng/tissue) at 48 h 0.03 mpk” value is “BLOQ”. Also, in data set [1], the “In vivo degradability (ng tissue) at 48 h 0.1 mpk” value was “BLOQ” and the “In vivo degradability (ng/tissue) at 48 h 0.1 mpk” value is listed as “BLOQ”. In addition, the “In vivo degradability (ng/tissue) at 48 h 0.03 mpk” value in data set [1] (Table 2, 0.03 mpk) is listed as “BLOQ”.

Consider `CC1CCC(CCC(=O)OCC(COC(=O)CCC2CCC(C)CC2)COC(=O)CCN(CCC(=O)OCC(COC(=O)CCC2CCC(C)CC2)COC(=O)CCC2CCC(C)CC2)C(=O)SCCCN(C)C)CC1` (centres unmarked) [LIPID 27], for which, in the data set “Mouse plasma stability” (Table 2, 37° C.), the “Plasma half life % remaining after 2 h” value was determined as 100%. Also, the “In vivo degradability (ng/tissue) at 48 h 0.03 mpk” value in data set [1] (Table 2, 0.03 mpk) is “BLOQ”. Besides, in data set [1], the “In vivo degradability (ng/tissue) at 48 h 0.1 mpk” value is “BLOQ”.

As to `CN(C)CCCSC(=O)N(CCCC(=O)OC(COC(=O)C1CC2CCCCC2C1)COC(=O)C1CC2CCCCC2C1)CCCC(=O)OC(COC(=O)C1CC2CCCCC2C1)COC(=O)C1CC2CCCCC2C1` (centres unmarked) [LIPID 28], in the data set “Mouse plasma stability” (Table 2, 37° C.), the “Plasma half life % remaining after 2 h” value amounted to 100%. For the same molecule, the “In vivo degradability (ng/tissue) at 48 h 0.03 mpk” value in data set [1] (Table 2, 0.03 mpk) is “BLOQ”. In addition, the “In vivo degradability (ng/tissue) at 48 h 0.1 mpk” value in data set [1] is “BLOQ”.

On to `CN(C)CCCSC(=O)N(CCCC(=O)OC(COC(=O)C1CCC2CCCC2C1)COC(=O)C1CCC2CCCC2C1)CCCC(=O)OC(COC(=O)C1CCC2CCCC2C1)COC(=O)C1CCC2CCCC2C1` (centres unmarked) [LIPID 30, ((4,4′-((((3-(dimethylamino)propyl)thio)carbonyl)azanediyl)bis(butanoyl))bis(oxy))bis(propane-2,1,3-triyl) tetrakis(octahydro-1H-indene-5-carboxylate)], for which the “Plasma half life % remaining after 2 h” value in the data set “Mouse plasma stability” (Table 2, 37° C.) is listed as 100%. Besides, the “In vivo degradability (ng/tissue) at 48 h 0.03 mpk” value in data set [1] (Table 2, 0.03 mpk) was “BLOQ”. In addition, the “In vivo degradability (ng/tissue) at 48 h 0.1 mpk” value in data set [1] is recorded as “BLOQ”.
